Like-named read-outs stand apart in the source and are kept apart here.
Columns and labels:
[1] = target: T1, recombinant form of Glutaminase 1 (GAC) (Homo sapiens, UniProt O94925); assay: Recombinant Enzyme Assay - Time Dependence (60 min preincubation); format: biochemical
T1 sequence (O94925 137-598 isoform O94925-3 limits assumed): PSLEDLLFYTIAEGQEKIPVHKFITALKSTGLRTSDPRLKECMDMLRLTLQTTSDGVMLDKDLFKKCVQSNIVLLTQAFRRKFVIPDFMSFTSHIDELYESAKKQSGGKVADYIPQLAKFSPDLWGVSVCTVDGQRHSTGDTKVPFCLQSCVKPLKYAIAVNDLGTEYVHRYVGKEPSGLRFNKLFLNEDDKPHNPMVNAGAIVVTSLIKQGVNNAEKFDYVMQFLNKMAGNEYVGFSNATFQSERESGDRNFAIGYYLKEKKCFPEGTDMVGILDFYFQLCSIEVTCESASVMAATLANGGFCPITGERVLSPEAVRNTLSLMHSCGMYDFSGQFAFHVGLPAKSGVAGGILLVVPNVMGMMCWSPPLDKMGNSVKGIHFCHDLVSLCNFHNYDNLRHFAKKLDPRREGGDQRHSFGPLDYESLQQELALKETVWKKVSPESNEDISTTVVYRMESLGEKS
How it was run: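 Enzyme and compound preincubated 60 min at 20° C; reaction started with substrate buffer (50 mM Tris-HCl pH 8.0, 150 mM K2HPO4, 1 mM DTT, 20 mM L-glutamine, 2 mM NAD^+). NADH formation followed at 340 nm in kinetic mode for 15 min at 20° C; slopes (mAU/min) compared with DMSO and control-compound wells.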

P493-6 (myc "on") cells = assay: Cell Proliferation Assay; format: cell-based; conditions: P493-6, 72 h, read-out: Cell prolif P493 72 h IC50, P493-6 cells, 72 h
How it was run: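 P493-6 cells with myc on, 10,000 per well in RPMI/10% FBS, exposed to serially diluted compound (0.5% DMSO final) for 72 h at 37 °C, 5% CO2. Antiproliferative effect read by Cell Titer Glo luminescence or Viacount FACS viability count.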

[2] = read-out: GAC Delta N2 IC50 60 min preinc

Structure (SMILES) | IC50 [1, 2] [nM] | IC50 (P493-6 (myc "on") cells) [nM] | IC50 [1] [nM]
CCOC(=O)Cc1cccc(CC(=O)Nc2ccc(CCCCc3nnc(NC(=O)Cc4ccccc4)s3)nn2)c1 [Compound 501] | 4 | 69 | 
CCNC(=O)OC(C)c1cccc(CC(=O)Nc2ccc(CCCCc3nnc(NC(=O)Cc4cccc(OC(F)(F)F)c4)s3)nn2)c1 (stereo not drawn) [Compound 596] | 15 | 330 | 
CC(C)(C)OC(=O)NCc1cccc(CC(=O)Nc2nnc(CCCCc3ccc(NC(=O)C(C)(CO)CO)nn3)s2)c1 [Compound 530] | 55 | 280 | 
COC(=O)NCc1cccc(CC(=O)Nc2ccc(CCCCc3nnc(NC(=O)C(C)c4ccccc4)s3)nn2)c1 (stereo not drawn) [Compound 553] | 5 | 19 | 
CC(=O)Nc1ccc(CCCCc2nnc(NC(=O)Cc3cccc(CNC(=O)OC(C)(C)C)c3)s2)nn1 [Compound 424] | 6 | 8 | 
CC(=O)Nc1ccc(CCCCc2nnc(NC(=O)Cc3cccc(CN)c3)s2)nn1 [Compound 425] | 86 | 15 | 
CC(C)CNC(=O)COc1cccc(CC(=O)Nc2ccc(CCCCc3nnc(NC(=O)Cc4ccccc4)s3)nn2)c1 [Compound 647] | 4 | 18 | 
CN1CCC(Oc2cccc(CC(=O)Nc3nnc(CCCCc4ccc(NC(=O)Cc5ccccc5)nn4)s3)c2)CC1 [Compound 551] | 10 | 127 | 
CC(C)(C)CNC(=O)Cc1cccc(CC(=O)Nc2nnc(CCCCc3ccc(NC(=O)Cc4ccccc4)nn3)s2)c1 [Compound 471] | 3 | 6 | 
CC(O)(CC(=O)NCc1cccc(CC(=O)Nc2nnc(CCCCc3ccc(NC(=O)Cc4ccccc4)nn3)s2)c1)C(F)(F)F (stereo not drawn) [Compound 579] | 4 | 9 | 
O=C(Cc1ccccc1)Nc1ccc(CCCCc2nnc(NC(=O)Cc3ccc(Cl)c(Cl)c3)s2)nn1 [Compound 548] | 10 | 85 | 
CNCc1cccc(CC(=O)Nc2nnc(CCCCc3ccc(NC(=O)Cc4ccccc4)nn3)s2)c1 [Compound 408] | 18 | 190 | 
CC(C)(C)OC(=O)NCc1ccc(CC(=O)Nc2nnc(CCCCc3ccc(NC(=O)Cc4ccccc4)nn3)s2)cc1 [Compound 401] | 5 | 11 | 
O=C(Cc1ccccc1)Nc1ccc(CCCCc2nnc(NC(=O)Cc3cccs3)s2)nn1 [Compound 503] | 8 | 150 | 
CC(C)CNC(=O)Cc1cccc(CC(=O)Nc2ccc(CCCCc3nnc(NC(=O)Cc4ccccc4)s3)nn2)c1 [Compound 517] |  | 46 | 3
O=C(Cc1ccccc1)Nc1ccc(CCCCc2nnc(NC(=O)Cc3ccc(F)c(Cl)c3)s2)nn1 [Compound 549] | 6 | 45 | 
CC(O)c1cccc(CC(=O)Nc2nnc(CCCCc3ccc(NC(=O)Cc4ccccc4)nn3)s2)c1 (stereo not drawn) [Compound 593] | 5 | 33 | 
CC(=O)N(C)Cc1cccc(CC(=O)Nc2nnc(CCCCc3ccc(NC(=O)Cc4ccccc4)nn3)s2)c1 [Compound 445] | 4 | 22 | 
COC(=O)NC(C)c1cccc(CC(=O)Nc2ccc(CCCCc3nnc(NC(=O)C(C)c4ccccc4)s3)nn2)c1 (stereo not drawn) [Compound 601] | 6 | 36 | 
CC1(C)CCN(C(=O)Cc2cccc(CC(=O)Nc3nnc(CCCCc4ccc(NC(=O)Cc5ccccc5)nn4)s3)c2)C1 [Compound 481] | 4 | 12 | 
CCN(CC)C(=O)COc1cccc(CC(=O)Nc2ccc(CCCCc3nnc(NC(=O)Cc4ccccc4)s3)nn2)c1 [Compound 646] | 7 | 37 | 

Structure (SMILES) | IC50 [1, 2] [nM] | IC50 (P493-6 (myc "on") cells) [nM] | IC50 [1] [nM]
NCCc1cccc(CC(=O)Nc2nnc(CCCCc3ccc(NC(=O)Cc4ccccc4)nn3)s2)c1 [Compound 441] | 11 | 180 | 
COc1cccc(C(OC(=O)CCN2CCOCC2)C(=O)Nc2nnc(CCCCc3ccc(NC(=O)Cc4ccccc4)nn3)s2)c1 (stereo not drawn) [Compound 404] | 60 | 22 | 
CC(C)(O)CNC(=O)Cc1cccc(CC(=O)Nc2nnc(CCCCc3ccc(NC(=O)Cc4ccccc4)nn3)s2)c1 [Compound 514] | 9 | 63 | 
CC(=O)Nc1cccc(CC(=O)Nc2nnc(CCCCc3ccc(NC(=O)Cc4ccccc4)nn3)s2)c1 [Compound 451] | 3 | 56 | 
COc1cc(CC(=O)Nc2nnc(CCCCc3ccc(NC(=O)Cc4ccccc4)nn3)s2)cc(OC)c1 [Compound 398] | 4 | 23 | 
CC(C)(C)OC(=O)NCc1cccc(CC(=O)Nc2nnc(CCCCc3ccc(NC(=O)C(C)(C)C)nn3)s2)c1 [Compound 510] | 22 | 94 | 
CCOC(=O)NC(C)c1cccc(CC(=O)Nc2nnc(CCCCc3ccc(NC(=O)Cc4ccccc4)nn3)s2)c1 (stereo not drawn) [Compound 562] | 3 | 2 | 
CC(C)(C)C(=O)NCc1cccc(CC(=O)Nc2nnc(CCCCc3ccc(NC(=O)Cc4ccccc4)nn3)s2)c1 [Compound 564] | 4 | 2 | 
O=C(O)Cc1cccc(CC(=O)Nc2nnc(CCCCc3ccc(NC(=O)Cc4ccccc4)nn3)s2)c1 [Compound 465] | 6 | 920 | 
O=C(CC(O)C(F)(F)F)NCc1cccc(CC(=O)Nc2nnc(CCCCc3ccc(NC(=O)Cc4ccccc4)nn3)s2)c1 (stereo not drawn) [Compound 578] | 4 | 22 | 
COc1cccc(CNC(=O)Nc2nnc(CCCCc3nnc(NC(=O)Cc4ccccc4)s3)s2)c1 [Compound 416] | 55 | 350 | 
CN(C)CC(=O)Nc1cccc(CC(=O)Nc2nnc(CCCCc3ccc(NC(=O)Cc4ccccc4)nn3)s2)c1 [Compound 457] | 9 | 110 | 
O=C(Cc1ccccc1Cl)Nc1ccc(CCCCc2nnc(NC(=O)Cc3ccccc3Cl)s2)nn1 [Compound 565] | 5 | 13 | 
CC(C)(N)c1cccc(CC(=O)Nc2ccc(CCCCc3nnc(NC(=O)Cc4ccccc4)s3)nn2)c1 [Compound 633] | 7 | 130 | 
O=C(Cc1ccccc1F)Nc1ccc(CCCCc2nnc(NC(=O)Cc3ccccc3)s2)nn1 [Compound 520] | 7 | 56 | 
CS(=O)(=O)Cc1cccc(CC(=O)Nc2ccc(CCCCc3nnc(NC(=O)Cc4ccccc4)s3)nn2)c1 [Compound 635] | 5 | 30 | 
CCOC(=O)NC(C)c1cccc(CC(=O)Nc2ccc(CCCCc3nnc(NC(=O)C(C)c4ccccc4)s3)nn2)c1 (stereo not drawn) [Compound 602] | 6 | 36 | 
COc1cccc(CC(=O)Nc2nnc(CCCCc3ccc(NC(=O)Cc4ccccc4)nn3)s2)c1OC [Compound 397] | 8 | 41 | 
O=C(Cc1ccccc1)Nc1ccc(CCCCc2nnc(NC(=O)Cc3cccc(CNC(=O)C(O)C(F)(F)F)c3)s2)nn1 (stereo not drawn) [Compound 577] | 4 | 34 | 
CC(=O)Nc1ccc(CCCCc2nnc(NC(=O)Cc3cccc(CNC(=O)Cc4ccccc4)c3)s2)nn1 [Compound 462] | 6 | 53 | 
CN(C)Cc1cccc(CC(=O)Nc2nnc(CCCCc3ccc(NC(=O)Cc4ccccc4)nn3)s2)c1 [Compound 406] | 16 | 270 | 
